Experimental data: the Kinase Knowledgebase extract (Sharma et al. 2016)

How the values were obtained:
CDK2 (human) = CDK2 (human) (UniProt P24941); assay: Enzyme Assay
ROCK2 (human) = ROCK2 (human) (UniProt O75116); assay: Enzyme Assay
Sequence of ROCK2 (human) (O75116 whole entry, looked up): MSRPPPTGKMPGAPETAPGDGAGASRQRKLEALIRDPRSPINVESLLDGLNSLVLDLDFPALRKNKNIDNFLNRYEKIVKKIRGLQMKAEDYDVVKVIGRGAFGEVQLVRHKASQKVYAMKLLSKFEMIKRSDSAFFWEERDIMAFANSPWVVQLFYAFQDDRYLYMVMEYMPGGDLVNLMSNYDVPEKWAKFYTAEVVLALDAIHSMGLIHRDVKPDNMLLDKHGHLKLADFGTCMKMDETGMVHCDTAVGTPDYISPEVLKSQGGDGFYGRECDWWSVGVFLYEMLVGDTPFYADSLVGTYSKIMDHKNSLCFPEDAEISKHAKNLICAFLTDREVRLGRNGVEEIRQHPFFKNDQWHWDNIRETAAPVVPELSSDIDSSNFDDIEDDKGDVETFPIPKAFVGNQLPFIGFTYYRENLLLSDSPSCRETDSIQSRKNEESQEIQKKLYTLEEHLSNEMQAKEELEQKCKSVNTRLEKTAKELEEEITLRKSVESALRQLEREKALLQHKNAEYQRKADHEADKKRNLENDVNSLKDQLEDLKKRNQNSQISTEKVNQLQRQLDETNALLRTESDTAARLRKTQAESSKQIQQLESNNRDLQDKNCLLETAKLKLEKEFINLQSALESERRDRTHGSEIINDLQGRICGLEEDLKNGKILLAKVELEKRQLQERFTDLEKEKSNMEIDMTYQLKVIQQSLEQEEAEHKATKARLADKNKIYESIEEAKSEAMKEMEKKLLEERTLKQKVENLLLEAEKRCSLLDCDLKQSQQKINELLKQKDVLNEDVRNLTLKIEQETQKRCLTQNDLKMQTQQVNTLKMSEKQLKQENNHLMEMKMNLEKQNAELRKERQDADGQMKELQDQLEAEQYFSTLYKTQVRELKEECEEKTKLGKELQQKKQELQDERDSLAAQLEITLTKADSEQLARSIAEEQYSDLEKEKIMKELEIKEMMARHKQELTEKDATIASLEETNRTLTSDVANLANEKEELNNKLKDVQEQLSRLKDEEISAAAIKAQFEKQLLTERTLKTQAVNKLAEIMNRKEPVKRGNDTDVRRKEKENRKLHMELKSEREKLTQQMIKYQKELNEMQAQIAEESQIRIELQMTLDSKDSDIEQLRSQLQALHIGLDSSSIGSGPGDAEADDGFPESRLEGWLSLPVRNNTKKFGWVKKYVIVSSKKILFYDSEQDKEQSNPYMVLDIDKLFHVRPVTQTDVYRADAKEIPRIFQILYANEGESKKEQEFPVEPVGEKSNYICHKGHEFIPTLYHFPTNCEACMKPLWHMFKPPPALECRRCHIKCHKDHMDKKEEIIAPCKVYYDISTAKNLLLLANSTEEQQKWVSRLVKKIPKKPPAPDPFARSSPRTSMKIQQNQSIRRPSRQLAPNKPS

| Compound | Ki (CDK2 (human)) [nM] | Ki (ROCK2 (human)) [nM] |
| --- | --- | --- |
| O=C(Nc1n[nH]c2ccc(-c3cn(Cc4ccccc4)nn3)cc12)c1cc(F)ccc1F | 25.1 | > 5010 |
| OCCCCNc1cc(-c2c[nH]c3ncccc23)cc(Cl)n1 | 126 | 15.8 |
| N#Cc1ccc2[nH]c(O)c(-c3ccc(CN4CCOCC4)cn3)c2c1 | 1000 | > 6310 |
| Cc1n[nH]c2ccc(-c3cncc(OCCNS(C)(=O)=O)c3)cc12 | 316 | 158 |
| c1ccc(Cn2cc(-c3ccc4[nH]nc(-c5cn(Cc6ccccc6)nn5)c4c3)nn2)cc1 | 5.01 | 126 |
| O=c1cc(-c2ccncc2)nc(NCc2cc(F)cc(F)c2)[nH]1 | 794 | 794 |
| CN(C)CCCOc1cc(-c2ccncc2)cc2[nH]nc(N)c12 | 3160 | 251 |
| c1ccc(Cn2nnc(-c3ccc4[nH]ncc4c3)c2-c2ccccc2)cc1 | 63.1 |  |
| CNCCOc1cncc(-c2ccc3[nH]nc(C)c3c2)c1 | 501 | 20 |
| c1ccc(Cn2cc(-c3ccc4[nH]nc(-c5ccccc5)c4c3)nn2)cc1 | 100 | 63.1 |
| Clc1cc(NC2CCCCC2)nc(-c2c[nH]c3ncccc23)n1 |  | > 316 |
| O=[N+]([O-])c1cccc(-c2nnc3ccc(N4CCCCC4)nn23)c1 | 631 | > 7940 |
| NC(=O)c1cc(-c2ccnc(N)n2)[nH]c1-c1ccc(Cl)cc1Cl |  | 316 |
| Cc1cccc(CNc2cc(-c3c[nH]c4ncccc34)ncn2)c1 | 39.8 | 12.6 |
| CCNC(=O)c1[nH]nc(-c2cc(Cl)c(O)cc2O)c1-c1ccc(OC)cc1 | 6310 | 2510 |
| Clc1cc(-c2c[nH]c3ncccc23)nc(NC2CCCCC2)n1 | 200 | 126 |
| Nc1n[nH]c2ccc(-c3cc(Cc4ccccc4)no3)cc12 | 200 | 25.1 |
| NC(=O)c1ccc(-c2nc(-c3ccc4c(c3)OCO4)c(-c3ccccn3)[nH]2)cc1 |  | > 3980 |
| O=C1Nc2ccccc2Nc2cc(-c3ccncc3)ccc21 | 1000 | 316 |
| C=CCNc1cc(-c2c[nH]c3ncccc23)cc(Cl)n1 | 100 | 12.6 |
| CN(C)C1CCC(Nc2nc(Cl)cc(-c3c[nH]c4ncccc34)n2)CC1 (stereo not drawn) | 25.1 | 2.51 |
| Cc1n[nH]c2ccc(-c3cncc(OCCN(C)S(C)(=O)=O)c3)cc12 | 501 | 100 |
| CC(C)(O)CNc1cc(-c2c[nH]c3ncccc23)cc(Cl)n1 | 251 | 15.8 |
| Cc1ccccc1-c1c(-c2ccc3[nH]nc(C)c3c2)nnn1Cc1ccccc1 | 3.98 |  |
| Nc1n[nH]c2ccc(-c3nnn(Cc4ccccc4)c3C3CC3)cc12 | 79.4 | 20 |

| Compound | Ki (CDK2 (human)) [nM] | Ki (ROCK2 (human)) [nM] |
| --- | --- | --- |
| CC(C)(C)Oc1cc(-c2ccncc2)cc2[nH]nc(N)c12 | 126 | 50.1 |
| NCCCn1cc(-c2cc(-c3cc4ccccc4s3)c3[nH]ncc3c2)c2nc(N)ncc21 | 12.6 | 63.1 |
| CS(=O)(=O)Nc1ccccc1-c1ccc2c(c1)Nc1ccccc1NC2=O | 6310 |  |
| Cn1cncc1C(OCc1c(-c2ccc(OC(F)(F)F)cc2)cc(C#N)c(=O)n1C)c1ccc(C#N)cc1 (stereo not drawn) |  | > 7940 |
| CN(c1ccccc1-c1ccc2c(c1)Nc1ccccc1NC2=O)S(C)(=O)=O | 2000 |  |
| COCC(C)Nc1cc(-c2c[nH]c3ncccc23)cc(Cl)n1 (stereo not drawn) | 158 | 7.94 |
| O=C1CN=C(c2cccc(Cl)c2)c2c(sc3c2CCCC3)N1 | 7940 |  |
| O=C1c2ccccc2-c2n[nH]c3cccc1c23 | 79.4 | 3160 |
| CCCCNc1c(-c2ccc3[nH]ncc3c2)nc2ncccn12 | 398 | 63.1 |
| O=c1cc(-c2ccc(F)cc2)[nH]c2c(-c3ccc(F)cc3)cnn12 |  | > 7940 |
| CN1CCN(c2nc(C3=C(c4c[nH]c5ccccc45)C(=O)NC3=O)c3ccccc3n2)CC1 | 126 | > 7940 |
| O=C(NCc1ccccc1)c1c[nH]n2c(=O)cc(-c3ccncc3)nc12 | 158 | > 7940 |
| COc1ccccc1C(=O)Nc1n[nH]c2ccc(-c3cn(Cc4ccccc4)nn3)cc12 | 251 | > 7940 |
| NC(=O)c1ccccc1Nc1nc(Nc2ccccc2)ncc1C(F)(F)F |  | 501 |
| CCOC(=O)c1cn(-c2ccc(O)cc2C)c2cc(-c3ccncc3)ccc2c1=O | 3980 | 31.6 |
| CCn1c(-c2nonc2N)nc2cnc(Oc3cccc(NC(=O)c4ccc(OCCN5CCOCC5)cc4)c3)cc21 | 794 |  |
| Nc1noc2cccc(-c3cccc(O)c3)c12 |  | 251 |
| Cc1cccc(CNc2cc(-c3c[nH]c4ncccc34)cc(Cl)n2)c1C | 200 | 31.6 |
| O=C(Nc1cccc(C(F)(F)F)n1)Nc1ccnc2ccc(F)cc12 |  | > 3980 |
| COCCNc1cc(-c2c[nH]c3ncccc23)cc(Cl)n1 | 251 | 5.01 |
| CCCCOc1cc(-c2ccncc2)cc2[nH]nc(N)c12 | 1000 | 126 |
| CN(C)c1cc(-c2ccncc2)cc2[nH]nc(N)c12 | 631 | 79.4 |
| Cc1cc(Nc2cc(N3CCN(C)CC3)nc(Sc3ccc(NC(=O)C4CC4)cc3)n2)[nH]n1 |  | > 3980 |
| CC(C)(CO)CCCNc1cc(-c2c[nH]c3ncccc23)cc(Cl)n1 | 100 | 10 |
| O=C(O)c1ccccc1Nc1ccnc(NCc2cccc(O)c2)n1 |  | > 7940 |

| Compound | Ki (CDK2 (human)) [nM] | Ki (ROCK2 (human)) [nM] |
| --- | --- | --- |
| Cc1cc(=O)n2[nH]cc(C(=O)NCc3ccccc3)c2n1 |  | 2510 |
| NC1CCCCC1Nc1nccc(-c2c[nH]c3ncccc23)n1 (stereo not drawn) | 12.6 |  |
| Nc1ncnc2c1c(-c1cnc3[nH]ccc3c1)nn2C1CCCC1 |  | 39.8 |
| Cc1cccc(NC(=O)Nc2ccc3c(c2)CCc2sc4ncnc(N)c4c2-3)c1 |  | 79.4 |
| O=C(Nc1ccccc1)Nc1nccs1 | 20000 |  |
| Cn1cc(-c2ccccc2)c2nc(-c3ccncc3)cc(=O)n21 |  | 3160 |
| CCOC(=O)c1c[nH]n2c(=O)cc(-c3ccncc3)nc12 |  | 2000 |
| CC(C)(CO)CNc1nccc(-c2c(-c3ccc(F)cc3)nc3c(CC4CC4)nccn23)n1 |  | > 7940 |
| Cc1sc2[nH]c(=O)n3nc(-c4ccncc4)nc3c2c1C |  | 3980 |
| O=C1NC(=O)C(c2c[nH]c3ccccc23)=C1c1nc(N2CCNCC2)nc2ccccc12 |  | > 3980 |
| FC(F)(F)c1ccccc1CNc1nccc(-c2c[nH]c3ncccc23)n1 | 5.01 |  |
| Oc1ccc(-c2nc(-c3ccc(F)cc3)c(-c3ccncc3)[nH]2)cc1 |  | > 3980 |
| c1ccc(-c2n[nH]cc2-c2ccncc2)cc1 | 12600 |  |
| CCCCC(=O)Nc1cc(-c2c[nH]c3ncccc23)cc(Cl)n1 |  | 158 |
| O=c1cc(-c2cccc(F)c2)[nH]c2c(-c3ccc(F)cc3)cnn12 |  | > 7940 |
| NC(=O)c1ccc2c(ccn2-c2cccc(Cl)c2)c1 |  | 2510 |
| Fc1ccc2c(c1)-c1n[nH]cc1CS2 | 20000 |  |
| NNc1cc(N2CCOCC2)nc(OCCc2ccccn2)n1 |  | > 5010 |
| COc1cc2c(cc1F)C(c1ccccc1Cl)=Nc1c(n[nH]c1C)N2 |  | > 7940 |
| CCOC(=O)c1c(NC(=O)C2C(C)(C)C2(C)C)sc2cnccc12 | 1000 |  |
| CS(=O)(=O)N(Cc1ccc2[nH]c(=O)c3cccn3c2c1)C1CC1 |  | > 7940 |
| Cc1c(C=O)c(O)n2c(nc3ccccc32)c1C#N |  | > 7940 |
| NC1CCCCC1Nc1nccc(Nc2ccccc2C(=O)O)n1 (stereo not drawn) |  | > 7940 |
| CCCn1c(=O)c2[nH]c(-c3cnn(Cc4cccc(C(F)(F)F)c4)c3)nc2n(CC)c1=O | 5010 |  |
